Measurements published in US20070021397A1, “Neurocyte protective agent” (priority 2003, published 2007).

How the values were obtained:
[1] = test system: cultured rat septal area neurons; assay: Aβ(1-40) toxicity, LDH leakage from cultured septal area neurons; type: cell-based; settings: siRNA 1 μmol/L added 24 h before and immediately before 15 μmol/L Aβ(1-40), 48 h; FIG. 12
Description: Septal area neurons were prepared from embryos (18-day-old embryos) of Wistar rats (Charles River Japan). The septal region (including septal area and basal forebrain) was cut out from embryonic brain and incubated in Ca^2+/Mg^2+-free Hanks' balanced salt solution containing 0.25% trypsin and 0.2 mg/ml DNase I at 37° C. for 15 minutes. […] Cells were plated on 96-well poly-D-lysine-coated culture plates at a concentration of 1.2×10^5 cells/well. The plated cells were cultured in a CO2 incubator (5% CO2, 37° C.). After one day, ⅔ of the medium was exchanged for the above-described DMEM containing 5% fetal calf serum. After three days, ⅔ of the medium was exchanged again for the above-described DMEM containing 5% fetal calf serum. After 6 days, the entire medium was exchanged for the above-described DMEM (this time, Gln is not contained) not containing serum.
As an indicator for cytotoxicity, LDH (lactate dehydrogenase) was measured. […] Forty-eight hours after the addition of Aβ(1-40), lactate dehydrogenase (LDH) activity in the medium was measured. At the same time, cells were solubilized with phosphate buffer (pH 7.4) containing 0.5% Triton X-100, followed by measurement of LDH in cells. […] The data were analyzed by analysis techniques of ANOVA and Welch's test.
LDH (lactate dehydrogenase) was measured as an indicator for cytotoxicity. […] The data were analyzed by ANOVA and Welch's test.

[2] = test system: rat primary culture neurons; assay: OGD test, microscopic observation of cell morphology; settings: added before OGD treatment; FIG. 2
[3] = test system: rat primary culture cerebral cortex neurons; assay: OGD (oxygen glucose deprivation) test, LDH release; type: cell-based; settings: added 12 h before OGD; 0.1, 1.0, 10 μM (galantamine 1.0, 10, 100 μM); FIG. 3
Excerpt: After culturing for 7 days or more, cells were subjected to OGD treatment. […] As an indicator for neurocyte protection effect, ratio of LDH release inhibition was used. […] Therefore, when cells are injured by OGD, LDH flows out from inside of the cells into extracellular solution. In this solution, LDH is present depending on the degree of injury of the cells (cell death). The amount of LDH present in the solution can be determined by adding pyruvic acid and NADH to the solution and measuring the decreasing ratio of NADH with an absorption spectrometer.
Subsequently, rat primary culture neurons were subjected to OGD treatment in the same manner as in the previous test.
Then, their effects on LDH release induced by OGD treatment were tested.

Row | Compound | protective effect against Aβ(1-40) toxicity (LDH) [1] | further results
1 | siRNA (ii): double-stranded siRNA of acetylcholinesterase, SEQ ID NO: 3 and SEQ ID NO: 4 (chain 1 GCUGCCUCAAGAAAGUAUCTT; chain 2 GAUACUUUCUUGAGGCAGCTT; chemistry not given here) | inhibit Aβ toxicity | 
2 | siRNA (i): double-stranded siRNA of acetylcholinesterase, SEQ ID NO: 1 and SEQ ID NO: 2 (chain 1 AAUGUCAGUGACUCUGUUUTT; chain 2 AAACAGAGUCACUGACAUUTT; chemistry not given here) | inhibit Aβ toxicity | 
3 | COc1cc2c(cc1OC)C(=O)C(CC1CCN(Cc3ccccc3)CC1)C2.Cl (stereo not shown) [Donepezil, 1-benzyl-4-[(5,6-dimethoxy-1-indanone)-2-yl]methylpiperidine] |  | protection of neurons by cell morphology [2]: neurons were protected by the addition of donepezil before OGD treatment
4 | CCN(C)C(=O)Oc1cccc([C@H](C)N(C)C)c1 [Rivastigmine] |  | inhibition of LDH release (neurocyte protective effect) after OGD [3]: did not show any neurocyte protective effect
